Literature values in patent publication US20210121517A1, “STABLE PARENTERAL DOSAGE FORM OF CETRORELIX ACETATE” (Sun Pharmaceutical Industries Limited, priority 2019, published 2021).
Where two headings read alike, the source gives them in different places.

Details: 2.5 mg/ml

time until aggregation was seen (gluconic acid 0.71%, pH 3.1): 12 days
time until aggregation was seen (gluconic acid less than 0.07%, pH 3.7): ≤ 2 days
Substance: acetyl-D-3-(2′-naphtyl)-alanine-D-4-chlorophenylalanine-D-3-(3′-pyridyl)-alanine-L-serine-L-tyrosine-D-citruline-L-leucine-L-arginine-L-proline-D-alanine-amide [Cetrorelix acetate]
